Data published in publication PMC7352759, “S(+)-(2E)-N-(2-Hydroxypropyl)-3-Phenylprop-2-Enamide (KM-568): A Novel Cinnamamide Derivative with Anticonvulsant Activity in Animal Models of Seizures and Epilepsy” (International Journal of Molecular Sciences, 2020).

Assays:
[1] = system: rat cerebral cortex GABA receptor; assay: GABA receptor radioligand binding ([3H]GABA); details: 10 µM; non-selective agonist radioligand
Protocol: (§1) In order to identify molecular mechanism of action, KM-568 was tested at 10 µM in three radioligand binding assays: rat cerebral cortex GABA receptor non-selective agonist radioligand, AMPA (α-amino-3-hydroxy-5-methyl-4-isoxazolepropionic acid) receptor agonist radioligand, and NMDA (N-methyl-D-aspartate) receptor antagonist radioligand as well as one functional assay involving a human recombinant TRPV1 receptor expressed in CHO cells (agonist and antagonist effects).
(§2) Tests were performed by Eurofins Cerep (Eurofins CEREP SA, Celle-Lévescault, France) as a commercial service. In radioligand assays, rat cerebral cortex GABA receptor as well as rat cerebral cortex AMPA (α-amino-3-hydroxy-5-methyl-4-isoxazolepropionic acid) and NMDA (N-methyl-D-aspartate) receptors with 10 nM [^3H]GABA, 8 nM [^3H]AMPA, and 5 nM [^3H]CGP39653, respectively, were used. The results were detected by means of scintillation counting. In functional assays, a human recombinant TRPV1 receptor expressed in Chinese hamster ovary (CHO) cells with 1 µM capsaicin or 30 nM capsazepine were used. Fluorimetry was used as a detection method.

[2] = system: rats; assay: Neurotoxicity (TOX), behavioral tests, rats; type: in vivo
Protocol: (§3) In mice, the neurological deficit was measured by the rotarod test in which a 1 inch diameter knurled plastic rod rotating at 6 rpm was used. Tests were performed at 0.25 h or 0.5 h of intraperitoneal or oral administration of the certain dose of the compounds KM-568. Each mouse was placed on the rod. If the animal was not able to remain on the rod for at least 1 min in each of three trials, the neurotoxicity was scored. In rats, the neurological deficit was measured in behavioral tests and scored when ataxia and loss of placing response and muscle tone were observed. Tests in rats were performed after 0.5 h of intraperitoneal administration or 1.0 h of oral administration of the certain dose of compound KM-568. TD50s were calculated by probit analysis.

[3] = Neurotoxicity (TOX), behavioral tests, rats; type: in vivo; details: rat, in vivo
Protocol: as §3

[4] = system: mice; assay: Subcutaneous metrazol seizure threshold test (scMET), mice; type: in vivo; details: for ED50: Mus musculus, 95% confidence interval in parentheses
Protocol: In vivo activity testing was performed at the Epilepsy Branch, National Institute of Neurological Disorders and Stroke, National Institutes of Health (NIH, Bethesda, USA) within the Anticonvulsant Screening Program (ASP) (currently known as the Epilepsy Therapy Screening Program (ETSP)). Pharmacological evaluation was planned and performed in accordance with the Institute of Laboratory Resources polices on the humane care of laboratory animals and approved by the University of Utah’s Institutional Animal Care and Use Committee (IACUC). All testing protocols were previously published as well as they are available on the NIH website. In the tests, albino mice Carworth Farms No.1 (CF-1) (Charles River), C57/Bl6 mice (Charles River), Frings mice (University of Utah) or male rats Sprague–Dawley (Charles River) were used. All animals were housed, fed, and handled in a manner consistent with the recommendations in the National Council Publication, ‘Guide for the Care and Use of Laboratory animals’ [51]. The tested compound was suspended in 0.5% methylcellulose.
The tested compound was administered i.p. or p.o. at certain dose. Then, subcutaneous injection of metrazol (syn. pentetrazol, pentylenepentetrazol) dissolved in 0.9% NaCl at the dose of 85 mg/kg (mice) or 70 mg/kg (rats) was performed to induce seizures. Protection was scored if there was not an observed episode of clonic spasm of at least 5 sec.

[5] = biological target: T1, human recombinant TRPV1 receptor expressed in CHO cells (Homo sapiens, UniProt Q8NER1); assay: TRPV1 functional assay (agonist and antagonist effects); type: cell-based; details: 10 µM
T1 construct: host or cells: CHO cells
Protocol: as §1, §2

[6] = system: CF-1 mice; assay: Intravenous metrazol seizure threshold test (ivMET); type: in vivo; details: 0.25 h, mean ± SEM; for Time to clonus / Time to twitch: ten animals
Protocol: Then, 0.5% metrazol solution was then infused at a previously determined time-to-peak effect (0.25 h). The infusion was done at a constant rate of 0.34 mL/min through a tube cannulating a lateral tail vein of a test animal. The time from the start of the infusion to the appearance of the first twitch (time to twitch in sec) and the onset of sustained clonus (time to clonus in sec) were recorded. These times were also converted to the dose of metrazol (in mg/kg) causing first twitch and clonus.

[7] = system: mice; assay: Neurotoxicity (TOX), rotarod test, mice; type: in vivo
Protocol: as §3

[8] = Neurotoxicity (TOX), rotarod test, mice; type: in vivo; details: mouse, in vivo, rotarod, 0.25 h, 95% confidence interval in parentheses
Protocol: as §3

T1 sequence (Q8NER1 whole entry): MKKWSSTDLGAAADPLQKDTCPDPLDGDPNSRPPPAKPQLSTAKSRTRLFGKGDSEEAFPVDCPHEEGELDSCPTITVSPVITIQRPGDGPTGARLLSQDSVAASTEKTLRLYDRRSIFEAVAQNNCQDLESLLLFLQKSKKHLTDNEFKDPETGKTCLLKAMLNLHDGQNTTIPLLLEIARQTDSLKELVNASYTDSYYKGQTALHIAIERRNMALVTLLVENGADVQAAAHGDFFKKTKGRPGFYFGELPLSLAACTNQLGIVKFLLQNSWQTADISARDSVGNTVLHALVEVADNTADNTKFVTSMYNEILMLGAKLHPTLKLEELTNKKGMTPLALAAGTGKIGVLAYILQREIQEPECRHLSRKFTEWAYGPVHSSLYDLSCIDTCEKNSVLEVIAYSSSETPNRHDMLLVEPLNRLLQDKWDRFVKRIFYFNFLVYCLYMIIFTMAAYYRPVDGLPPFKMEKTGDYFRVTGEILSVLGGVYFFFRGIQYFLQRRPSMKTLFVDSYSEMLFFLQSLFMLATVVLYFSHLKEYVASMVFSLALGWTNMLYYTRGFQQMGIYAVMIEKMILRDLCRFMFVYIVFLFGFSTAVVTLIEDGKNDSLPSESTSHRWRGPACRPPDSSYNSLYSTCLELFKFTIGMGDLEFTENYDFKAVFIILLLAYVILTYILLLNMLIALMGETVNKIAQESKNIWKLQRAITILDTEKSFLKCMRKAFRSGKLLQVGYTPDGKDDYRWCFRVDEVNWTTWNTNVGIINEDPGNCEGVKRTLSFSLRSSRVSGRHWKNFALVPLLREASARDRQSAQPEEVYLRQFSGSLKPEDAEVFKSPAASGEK

C[C@H](O)CNC(=O)/C=C/c1ccccc1 [KM-568, S(+)-(2E)-N-(2-hydroxypropyl)-3-phenylprop-2-enamide]
Effect in GABA receptor radioligand binding assay [1]: No significant effects | TOX Results (animals displaying neurotoxicity/animals used) ([2]; i.p., 60 mg/kg, 0.5 h): 0/8 | TOX Results (animals displaying neurotoxicity/animals used) ([2]; i.p., 80 mg/kg, 0.5 h): 0/8 | TOX Results (animals displaying neurotoxicity/animals used) ([2]; i.p., 100 mg/kg, 0.5 h): 2/8 | TOX Results (animals displaying neurotoxicity/animals used) ([2]; i.p., 120 mg/kg, 0.5 h): 5/8 | TOX Results (animals displaying neurotoxicity/animals used) ([2]; i.p., 140 mg/kg, 0.5 h): 7/8 | TOX Results (animals displaying neurotoxicity/animals used) ([2]; p.o., 125.0 mg/kg, 1.0 h): 0/2 | TOX Results (animals displaying neurotoxicity/animals used) ([2]; p.o., 250.0 mg/kg, 1.0 h): 0/2 | TOX Results (animals displaying neurotoxicity/animals used) ([2]; p.o., 500.0 mg/kg, 1.0 h): 0/2 | TD50 at 0.5 h ([3]; ip, 0.5 h, 95% confidence interval in parentheses): 95.2 mg/kg | TD50 at 1 h ([3]; po, 1.0 h): > 500 mg/kg | ED50 ([4]; ip, 0.25 h): 104 mg/kg | ED50 ([4]; po, 0.5 h): 107 mg/kg | scMET Results (protected/tested animals) ([4]; i.p., 70 mg/kg, 0.25 h): 2/8 | scMET Results (protected/tested animals) ([4]; i.p., 100 mg/kg, 0.25 h): 3/8 | scMET Results (protected/tested animals) ([4]; i.p., 138 mg/kg, 0.25 h): 5/8 | scMET Results (protected/tested animals) ([4]; i.p., 170 mg/kg, 0.25 h): 8/8 | scMET Results (protected/tested animals) ([4]; p.o., 50 mg/kg, 0.5 h): 1/8 | scMET Results (protected/tested animals) ([4]; p.o., 100 mg/kg, 0.5 h): 4/8 | scMET Results (protected/tested animals) ([4]; p.o., 150 mg/kg, 0.5 h): 4/8 | scMET Results (protected/tested animals) ([4]; p.o., 200 mg/kg, 0.5 h): 8/8 | TRPV1 agonist effect [5]: No significant effects | TRPV1 antagonist effect [5]: No significant effects | Clonus (calculated metrazol dose causing clonus) ([6]; 44 mg/kg i.p.): 50.8 ± 3.5 mg/kg | Twitch (calculated metrazol dose causing first twitch) ([6]; 44 mg/kg i.p.): 37.8 ± 1.4 mg/kg | Time to clonus ([6]; 44 mg/kg i.p.): 48.2 ± 3.5 s | Time to twitch ([6]; 44 mg/kg i.p.): 35.8 ± 1.5 s | Clonus (calculated metrazol dose causing clonus) ([6]; 148 mg/kg i.p.): 80.2 ± 3.2 mg/kg | Twitch (calculated metrazol dose causing first twitch) ([6]; 148 mg/kg i.p.): 61.3 ± 2.2 mg/kg | Time to clonus ([6]; 148 mg/kg i.p.): 75.9 ± 2.9 s | Time to twitch ([6]; 148 mg/kg i.p.): 57.9 ± 1.6 s | TOX Results (animals displaying neurotoxicity/animals used) ([7]; i.p., 100 mg/kg, 0.25 h): 0/8 | TOX Results (animals displaying neurotoxicity/animals used) ([7]; i.p., 125 mg/kg, 0.25 h): 0/8 | TOX Results (animals displaying neurotoxicity/animals used) ([7]; i.p., 138 mg/kg, 0.25 h): 2/8 | TOX Results (animals displaying neurotoxicity/animals used) ([7]; i.p., 150 mg/kg, 0.25 h): 5/8 | TOX Results (animals displaying neurotoxicity/animals used) ([7]; i.p., 170 mg/kg, 0.25 h): 7/8 | TOX Results (animals displaying neurotoxicity/animals used) ([7]; i.p., 200 mg/kg, 0.25 h): 8/8 | TOX Results (animals displaying neurotoxicity/animals used) ([7]; p.o., 200 mg/kg): 0/8 | TOX Results (animals displaying neurotoxicity/animals used) ([7]; p.o., 300 mg/kg): 3/8 | TOX Results (animals displaying neurotoxicity/animals used) ([7]; p.o., 350 mg/kg): 5/8 | TOX Results (animals displaying neurotoxicity/animals used) ([7]; p.o., 400 mg/kg): 5/8 | TOX Results (animals displaying neurotoxicity/animals used) ([7]; p.o., 500 mg/kg): 7/8 | TD50 at 0.25 h ([8]; ip): 148 mg/kg | TD50 at 0.25 h ([8]; po): 344 mg/kg
